# Laboratory results published in patent US9738634B2, “Heterocyclic amide compound and herbicide” (SYNGENTA PARTICIPATIONS AG, priority 2013, dated 2017).
# Columns and labels:
# Format in all cases: in vivo
# chickweed [1] = experiment: Test Example 3: weedkilling efficacy through soil treatment; N: chickweed; conditions: treatment dosage 315 g/ha
# Summary of the method: (§1)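 Crop and weed responses were judged three weeks after a uniform surface spray of the water-diluted emulsion at the given g/ha rate. Seeds sat beneath about 1.5 cm of sterilized diluvial soil, and boxes stood in a greenhouse at 25 to 30° C.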
# black-grass [2] = experiment: Test Example 3: weedkilling efficacy through soil treatment; H: black-grass; conditions: treatment dosage 315 g/ha
# Summary of the method: as §1
# directly sown rice [3] = experiment: Test Example 3: soil treatment, effect on crop; b: directly sown rice; conditions: treatment dosage 315 g/ha
# Summary of the method: as §1
# bulrush [4] = experiment: Test Example 2: weedkilling efficacy, growth period weed treatment in the submerged state; B: bulrush; conditions: treatment dosage 252 g/ha
# Summary of the method: (§2)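 Barnyard grass, bulrush and oval-leafed pondweed sown in alluvial soil under 4 cm flooding, greenhouse 25 to 30° C. At 1-2 leaf stage, water-diluted emulsion applied to the water surface at stated g/ha dosages; effects scored 3 weeks later.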
# transplanted rice = experiment: Test Example 1: preemergent weed treatment in the submerged state, effect on crop; a: transplanted rice; conditions: treatment dosage 252 g/ha
# Summary of the method: (§3)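 Pots of alluvial soil flooded 4 cm deep, sown with barnyard grass, bulrush and oval-leafed pondweed and transplanted with 2.5-leaf rice. Emulsified compound applied to the water surface on sowing day at stated g/ha; greenhouse 25–30 °C, effects assessed 3 weeks after treatment.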
# soybean [5] = experiment: Test Example 4: foliar treatment, effect on crop; d: soybean; conditions: treatment dosage 315 g/ha
# Summary of the method: (§4)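 Seeds are spot-sown into sterilized diluvial soil and covered with about 1.5 cm of soil. After 14 days' greenhouse growth at 25 to 30° C, plants are sprayed on stems and leaves with diluted emulsion at the stated g/ha rate, then scored at 3 weeks.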
# Italian ryegrass [6] = experiment: Test Example 4: weedkilling efficacy by foliar treatment; I: Italian ryegrass; conditions: treatment dosage 315 g/ha
# Summary of the method: as §4
# crabgrass [7] = experiment: Test Example 4: weedkilling efficacy by foliar treatment; D: crabgrass; conditions: treatment dosage 315 g/ha
# Summary of the method: as §4
# corn [8] = experiment: Test Example 3: soil treatment, effect on crop; c: corn; conditions: treatment dosage 315 g/ha
# Summary of the method: as §1
# redroot pigweed [9] = experiment: Test Example 4: weedkilling efficacy by foliar treatment; L: redroot pigweed; conditions: treatment dosage 315 g/ha
# Summary of the method: as §4
# barnyard grass [10] = experiment: Test Example 2: weedkilling efficacy, growth period weed treatment in the submerged state; A: barnyard grass; conditions: treatment dosage 252 g/ha
# Summary of the method: as §2
# oval-leafed pondweed [11] = experiment: Test Example 2: weedkilling efficacy, growth period weed treatment in the submerged state; C: oval-leafed pondweed; conditions: treatment dosage 252 g/ha
# Summary of the method: as §2
# wild oat = experiment: Test Example 3: weedkilling efficacy through soil treatment; G: wild oat; conditions: treatment dosage 315 g/ha
# Summary of the method: as §1
# fig-leafed goosefoot [12] = experiment: Test Example 3: weedkilling efficacy through soil treatment; M: fig-leafed goosefoot; conditions: treatment dosage 315 g/ha
# Summary of the method: as §1
# beet [13] = experiment: Test Example 4: foliar treatment, effect on crop; f: beet; conditions: treatment dosage 315 g/ha
# Summary of the method: as §4
# soybean [14] = experiment: Test Example 3: soil treatment, effect on crop; d: soybean; conditions: treatment dosage 315 g/ha
# Summary of the method: as §1
# bulrush [15] = experiment: Test Example 1: weedkilling efficacy, preemergent weed treatment in the submerged state; B: bulrush; conditions: treatment dosage 252 g/ha
# Summary of the method: as §3
# green foxtail [16] = experiment: Test Example 4: weedkilling efficacy by foliar treatment; E: green foxtail; conditions: treatment dosage 315 g/ha
# Summary of the method: as §4
# birds-eye speedwell [17] = experiment: Test Example 3: weedkilling efficacy through soil treatment; p: birds-eye speedwell; conditions: treatment dosage 315 g/ha
# Summary of the method: as §1
# chickweed [18] = experiment: Test Example 4: weedkilling efficacy by foliar treatment; N: chickweed; conditions: treatment dosage 315 g/ha
# Summary of the method: as §4
# Indian mallow [19] = experiment: Test Example 4: weedkilling efficacy by foliar treatment; K: Indian mallow; conditions: treatment dosage 315 g/ha
# Summary of the method: as §4
# fig-leafed goosefoot [20] = experiment: Test Example 4: weedkilling efficacy by foliar treatment; M: fig-leafed goosefoot; conditions: treatment dosage 315 g/ha
# Summary of the method: as §4
# catchweed = experiment: Test Example 4: weedkilling efficacy by foliar treatment; O: catchweed; conditions: treatment dosage 315 g/ha
# Summary of the method: as §4
# crabgrass [21] = experiment: Test Example 3: weedkilling efficacy through soil treatment; D: crabgrass; conditions: treatment dosage 315 g/ha
# Summary of the method: as §1
# green foxtail [22] = experiment: Test Example 3: weedkilling efficacy through soil treatment; E: green foxtail; conditions: treatment dosage 315 g/ha
# Summary of the method: as §1
# barnyard grass [23] = experiment: Test Example 1: weedkilling efficacy, preemergent weed treatment in the submerged state; A: barnyard grass; conditions: treatment dosage 252 g/ha
# Summary of the method: as §3
# wheat [24] = experiment: Test Example 3: soil treatment, effect on crop; e: wheat; conditions: treatment dosage 315 g/ha
# Summary of the method: as §1
# oval-leafed pondweed [25] = experiment: Test Example 1: weedkilling efficacy, preemergent weed treatment in the submerged state; C: oval-leafed pondweed; conditions: treatment dosage 252 g/ha
# Summary of the method: as §3
# birds-eye speedwell [26] = experiment: Test Example 4: weedkilling efficacy by foliar treatment; p: birds-eye speedwell; conditions: treatment dosage 315 g/ha
# Summary of the method: as §4
# black-grass [27] = experiment: Test Example 4: weedkilling efficacy by foliar treatment; H: black-grass; conditions: treatment dosage 315 g/ha
# Summary of the method: as §4
# directly sown rice [28] = experiment: Test Example 4: foliar treatment, effect on crop; b: directly sown rice; conditions: treatment dosage 315 g/ha
# Summary of the method: as §4
# Indian mallow [29] = experiment: Test Example 3: weedkilling efficacy through soil treatment; K: Indian mallow; conditions: treatment dosage 315 g/ha
# Summary of the method: as §1
# Italian ryegrass [30] = experiment: Test Example 3: weedkilling efficacy through soil treatment; I: Italian ryegrass; conditions: treatment dosage 315 g/ha
# Summary of the method: as §1
# wheat [31] = experiment: Test Example 4: foliar treatment, effect on crop; e: wheat; conditions: treatment dosage 315 g/ha
# Summary of the method: as §4
# corn [32] = experiment: Test Example 4: foliar treatment, effect on crop; c: corn; conditions: treatment dosage 315 g/ha
# Summary of the method: as §4
# beet [33] = experiment: Test Example 3: soil treatment, effect on crop; f: beet; conditions: treatment dosage 315 g/ha
# Summary of the method: as §1
# redroot pigweed [34] = experiment: Test Example 3: weedkilling efficacy through soil treatment; L: redroot pigweed; conditions: treatment dosage 315 g/ha
# Summary of the method: as §1
SMILES,N (chickweed) weedkilling efficacy grade (chickweed [1]),H (black-grass) weedkilling efficacy grade (black-grass [2]),b (directly sown rice) effect on crop grade (directly sown rice [3]),B (bulrush) weedkilling efficacy grade (bulrush [4]),a (transplanted rice) effect on crop grade (transplanted rice),d (soybean) effect on crop grade (soybean [5]),I (Italian ryegrass) weedkilling efficacy grade (Italian ryegrass [6]),D (crabgrass) weedkilling efficacy grade (crabgrass [7]),c (corn) effect on crop grade (corn [8]),L (redroot pigweed) weedkilling efficacy grade (redroot pigweed [9]),A (barnyard grass) weedkilling efficacy grade (barnyard grass [10]),C (oval-leafed pondweed) weedkilling efficacy grade (oval-leafed pondweed [11]),G (wild oat) weedkilling efficacy grade (wild oat),M (fig-leafed goosefoot) weedkilling efficacy grade (fig-leafed goosefoot [12]),f (beet) effect on crop grade (beet [13]),d (soybean) effect on crop grade (soybean [14]),B (bulrush) weedkilling efficacy grade (bulrush [15]),E (green foxtail) weedkilling efficacy grade (green foxtail [16]),P (birds-eye speedwell) weedkilling efficacy grade (birds-eye speedwell [17]),N (chickweed) weedkilling efficacy grade (chickweed [18]),also measured
COc1nsc(NC(=O)C(C)(C)N2COC(C)=C(c3ccsc3)C2=O)n1 [B-1-04],"4 (weed kill ratio 70% or more, less than 90%)","5 (weed kill ratio 90% or more, (practically complete withering))","4 (weed kill ratio 70% or more, less than 90%)","5 (weed kill ratio 90% or more, (practically complete withering))",0 (weed kill ratio 5% or less (practically no effect)),0 (weed kill ratio 5% or less (practically no effect)),"5 (weed kill ratio 90% or more, (practically complete withering))","4 (weed kill ratio 70% or more, less than 90%)",0 (weed kill ratio 5% or less (practically no effect)),"4 (weed kill ratio 70% or more, less than 90%)","5 (weed kill ratio 90% or more, (practically complete withering))","5 (weed kill ratio 90% or more, (practically complete withering))","4 (weed kill ratio 70% or more, less than 90%)","5 (weed kill ratio 90% or more, (practically complete withering))","5 (weed kill ratio 90% or more, (practically complete withering))",0 (weed kill ratio 5% or less (practically no effect)),"5 (weed kill ratio 90% or more, (practically complete withering))","4 (weed kill ratio 70% or more, less than 90%)","5 (weed kill ratio 90% or more, (practically complete withering))","3 (weed kill ratio 40% or more, less than 70%)","K (Indian mallow) weedkilling efficacy grade (Indian mallow [19]): 4 (weed kill ratio 70% or more, less than 90%); M (fig-leafed goosefoot) weedkilling efficacy grade (fig-leafed goosefoot [20]): 5 (weed kill ratio 90% or more, (practically complete withering)); O (catchweed) weedkilling efficacy grade (catchweed): 4 (weed kill ratio 70% or more, less than 90%); D (crabgrass) weedkilling efficacy grade (crabgrass [21]): 5 (weed kill ratio 90% or more, (practically complete withering)); E (green foxtail) weedkilling efficacy grade (green foxtail [22]): 5 (weed kill ratio 90% or more, (practically complete withering)); A (barnyard grass) weedkilling efficacy grade (barnyard grass [23]): 5 (weed kill ratio 90% or more, (practically complete withering)); e (wheat) effect on crop grade (wheat [24]): 0 (weed kill ratio 5% or less (practically no effect)); C (oval-leafed pondweed) weedkilling efficacy grade (oval-leafed pondweed [25]): 5 (weed kill ratio 90% or more, (practically complete withering)); P (birds-eye speedwell) weedkilling efficacy grade (birds-eye speedwell [26]): 3 (weed kill ratio 40% or more, less than 70%); H (black-grass) weedkilling efficacy grade (black-grass [27]): 5 (weed kill ratio 90% or more, (practically complete withering)); b (directly sown rice) effect on crop grade (directly sown rice [28]): 4 (weed kill ratio 70% or more, less than 90%); K (Indian mallow) weedkilling efficacy grade (Indian mallow [29]): 3 (weed kill ratio 40% or more, less than 70%); I (Italian ryegrass) weedkilling efficacy grade (Italian ryegrass [30]): 5 (weed kill ratio 90% or more, (practically complete withering)); e (wheat) effect on crop grade (wheat [31]): 0 (weed kill ratio 5% or less (practically no effect)); c (corn) effect on crop grade (corn [32]): 3 (weed kill ratio 40% or more, less than 70%); f (beet) effect on crop grade (beet [33]): 4 (weed kill ratio 70% or more, less than 90%); L (redroot pigweed) weedkilling efficacy grade (redroot pigweed [34]): 4 (weed kill ratio 70% or more, less than 90%)"
CC1=C(c2ccsc2)C(=O)N(C(C)(C)C(=O)Nc2nc(C)ns2)CO1 [B-1-01],"3 (weed kill ratio 40% or more, less than 70%)","5 (weed kill ratio 90% or more, (practically complete withering))","5 (weed kill ratio 90% or more, (practically complete withering))","5 (weed kill ratio 90% or more, (practically complete withering))","4 (weed kill ratio 70% or more, less than 90%)","4 (weed kill ratio 70% or more, less than 90%)","5 (weed kill ratio 90% or more, (practically complete withering))","5 (weed kill ratio 90% or more, (practically complete withering))",0 (weed kill ratio 5% or less (practically no effect)),"5 (weed kill ratio 90% or more, (practically complete withering))","5 (weed kill ratio 90% or more, (practically complete withering))","5 (weed kill ratio 90% or more, (practically complete withering))","5 (weed kill ratio 90% or more, (practically complete withering))","5 (weed kill ratio 90% or more, (practically complete withering))","4 (weed kill ratio 70% or more, less than 90%)","2 (weed kill ratio 20% or more, less than 40%)","5 (weed kill ratio 90% or more, (practically complete withering))","5 (weed kill ratio 90% or more, (practically complete withering))","5 (weed kill ratio 90% or more, (practically complete withering))","4 (weed kill ratio 70% or more, less than 90%)","K (Indian mallow) weedkilling efficacy grade (Indian mallow [19]): 4 (weed kill ratio 70% or more, less than 90%); M (fig-leafed goosefoot) weedkilling efficacy grade (fig-leafed goosefoot [20]): 5 (weed kill ratio 90% or more, (practically complete withering)); O (catchweed) weedkilling efficacy grade (catchweed): 4 (weed kill ratio 70% or more, less than 90%); D (crabgrass) weedkilling efficacy grade (crabgrass [21]): 5 (weed kill ratio 90% or more, (practically complete withering)); E (green foxtail) weedkilling efficacy grade (green foxtail [22]): 5 (weed kill ratio 90% or more, (practically complete withering)); A (barnyard grass) weedkilling efficacy grade (barnyard grass [23]): 5 (weed kill ratio 90% or more, (practically complete withering)); e (wheat) effect on crop grade (wheat [24]): 4 (weed kill ratio 70% or more, less than 90%); C (oval-leafed pondweed) weedkilling efficacy grade (oval-leafed pondweed [25]): 5 (weed kill ratio 90% or more, (practically complete withering)); P (birds-eye speedwell) weedkilling efficacy grade (birds-eye speedwell [26]): 4 (weed kill ratio 70% or more, less than 90%); H (black-grass) weedkilling efficacy grade (black-grass [27]): 5 (weed kill ratio 90% or more, (practically complete withering)); b (directly sown rice) effect on crop grade (directly sown rice [28]): 5 (weed kill ratio 90% or more, (practically complete withering)); K (Indian mallow) weedkilling efficacy grade (Indian mallow [29]): 3 (weed kill ratio 40% or more, less than 70%); I (Italian ryegrass) weedkilling efficacy grade (Italian ryegrass [30]): 5 (weed kill ratio 90% or more, (practically complete withering)); e (wheat) effect on crop grade (wheat [31]): 1 (weed kill ratio 5% or more, less than 20%); c (corn) effect on crop grade (corn [32]): 4 (weed kill ratio 70% or more, less than 90%); f (beet) effect on crop grade (beet [33]): 3 (weed kill ratio 40% or more, less than 70%); L (redroot pigweed) weedkilling efficacy grade (redroot pigweed [34]): 4 (weed kill ratio 70% or more, less than 90%)"
